Data taken from PubChem BioAssay AID1918934 (Molecular Pharmacology Branch, DTP, NCI, 2023).
pIC50: −log10 of the molar value.

Tested on: 292921-168-R-J2-PDC complex spheroid viability
Assay: Anticancer human tumor 292921-168-R-J2-PDC patient-derived pancreatic carcinoma cell line growth inhibition
Settings: for pIC50: curve of first compound; for viability, T/C: stronger effect = lower value; active = viability on the fitted dose curve at most 10% of control; inactive = the rest
Method in brief: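 Drug combinations with the LSD1 inhibitor iadademstat tested on tumor cells co-cultured as spheroids with endothelial cells and mesenchymal stem cells. Concentrations descended in half-log increments from clinical Cmax or 10 microM.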
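Note: seven day compound exposure before luminescent viability read.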
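Throughout, for viability, T/C: 100% = DMSO vehicle control wells.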

Nc1ccccc1NC(=O)c1ccc(CNC(=O)OCc2cccnc2)cc1 + NC1CC1c1ccc(-c2cccc(O)c2)cc1
active: viability, T/C (second compound 0.1 µM, first compound 0.949 µM) 4.91% | viability, T/C (second compound 0.1 µM, first compound 3 µM) 0.29% | viability, T/C (second compound 0.316 µM, first compound 0.949 µM) 4.68% | viability, T/C (second compound 0.316 µM, first compound 3 µM) 0.3% | viability, T/C (second compound 1 µM, first compound 0.949 µM) 4.33% | viability, T/C (second compound 1 µM, first compound 3 µM) 0.19% | viability, T/C (second compound 3.16 µM, first compound 0.949 µM) 3.78% | viability, T/C (second compound 3.16 µM, first compound 3 µM) 0.25% | viability, T/C (second compound 10 µM, first compound 0.949 µM) 3.97% | viability, T/C (second compound 10 µM, first compound 3 µM) 0.74%
7.53: pIC50 (second compound 0.1 µM)
7.91: pIC50 (second compound 1 µM)
> 8.02: pIC50 (second compound 0.316 µM) | pIC50 (second compound 3.16 µM) | pIC50 (second compound 10 µM)
inactive: viability, T/C (second compound 0.1 µM, first compound 0.00949 µM) 60.9% | viability, T/C (second compound 0.1 µM, first compound 0.03 µM) 49% | viability, T/C (second compound 0.1 µM, first compound 0.0949 µM) 34.9% | viability, T/C (second compound 0.1 µM, first compound 0.3 µM) 19.9% | viability, T/C (second compound 0.316 µM, first compound 0.00949 µM) 48.2% | viability, T/C (second compound 0.316 µM, first compound 0.03 µM) 42.1% | viability, T/C (second compound 0.316 µM, first compound 0.0949 µM) 31.2% | viability, T/C (second compound 0.316 µM, first compound 0.3 µM) 19.6% | viability, T/C (second compound 1 µM, first compound 0.00949 µM) 53.6% | viability, T/C (second compound 1 µM, first compound 0.03 µM) 38.6% | viability, T/C (second compound 1 µM, first compound 0.0949 µM) 33.7% | viability, T/C (second compound 1 µM, first compound 0.3 µM) 18.6% | viability, T/C (second compound 3.16 µM, first compound 0.00949 µM) 47.7% | viability, T/C (second compound 3.16 µM, first compound 0.03 µM) 38.8% | viability, T/C (second compound 3.16 µM, first compound 0.0949 µM) 29.6% | viability, T/C (second compound 3.16 µM, first compound 0.3 µM) 18.9% | viability, T/C (second compound 10 µM, first compound 0.00949 µM) 41.9% | viability, T/C (second compound 10 µM, first compound 0.03 µM) 43.8% | viability, T/C (second compound 10 µM, first compound 0.0949 µM) 30.1% | viability, T/C (second compound 10 µM, first compound 0.3 µM) 19%

CC(C)c1c(-c2ccccc2)nc2c(C#N)c[nH]n2c1=O + NC1CC1c1ccc(-c2cccc(O)c2)cc1
< 5.00: pIC50 (second compound 0.1 µM) | pIC50 (second compound 0.316 µM) | pIC50 (second compound 1 µM) | pIC50 (second compound 3.16 µM) | pIC50 (second compound 10 µM)
inactive: viability, T/C (second compound 0.1 µM, first compound 0.0316 µM) 79.9% | viability, T/C (second compound 0.1 µM, first compound 0.1 µM) 84% | viability, T/C (second compound 0.1 µM, first compound 0.316 µM) 82% | viability, T/C (second compound 0.1 µM, first compound 1 µM) 70.7% | viability, T/C (second compound 0.1 µM, first compound 3.16 µM) 78.4% | viability, T/C (second compound 0.1 µM, first compound 10 µM) 66% | viability, T/C (second compound 0.316 µM, first compound 0.0316 µM) 81.7% | viability, T/C (second compound 0.316 µM, first compound 0.1 µM) 73% | viability, T/C (second compound 0.316 µM, first compound 0.316 µM) 80.7% | viability, T/C (second compound 0.316 µM, first compound 1 µM) 69.5% | viability, T/C (second compound 0.316 µM, first compound 3.16 µM) 71.4% | viability, T/C (second compound 0.316 µM, first compound 10 µM) 60.4% | viability, T/C (second compound 1 µM, first compound 0.0316 µM) 71.8% | viability, T/C (second compound 1 µM, first compound 0.1 µM) 68.9% | viability, T/C (second compound 1 µM, first compound 0.316 µM) 66.8% | viability, T/C (second compound 1 µM, first compound 1 µM) 66.2% | viability, T/C (second compound 1 µM, first compound 3.16 µM) 61.1% | viability, T/C (second compound 1 µM, first compound 10 µM) 55.7% | viability, T/C (second compound 3.16 µM, first compound 0.0316 µM) 58.6% | viability, T/C (second compound 3.16 µM, first compound 0.1 µM) 65.3% | viability, T/C (second compound 3.16 µM, first compound 0.316 µM) 64.4% | viability, T/C (second compound 3.16 µM, first compound 1 µM) 57.9% | viability, T/C (second compound 3.16 µM, first compound 3.16 µM) 52.2% | viability, T/C (second compound 3.16 µM, first compound 10 µM) 59.6% | viability, T/C (second compound 10 µM, first compound 0.0316 µM) 58.1% | viability, T/C (second compound 10 µM, first compound 0.1 µM) 53.2% | viability, T/C (second compound 10 µM, first compound 0.316 µM) 58.4% | viability, T/C (second compound 10 µM, first compound 1 µM) 53.7% | viability, T/C (second compound 10 µM, first compound 3.16 µM) 49.8% | viability, T/C (second compound 10 µM, first compound 10 µM) 52.2%

NC1CC1c1ccc(-c2cccc(O)c2)cc1 (stereo not given)
inactive: viability, T/C (compound 0.1 µM) 80.2% | viability, T/C (compound 0.316 µM) 71.4% [middle of 24 runs] | viability, T/C (compound 1 µM) 67.6% [middle of 25 runs] | viability, T/C (compound 3.16 µM) 64.6% [middle of 25 runs] | viability, T/C (compound 10 µM) 54.7% [middle of 25 runs]
